According to US6492563B2, “Fragrance precursors” (Givaudan SA, priority 2000, dated 2002):

Columns and labels:
Type in all cases: physicochemical
[1] = Photolysis of phenacyl acetals (I) in solution, mercury lamp, GC-FID; design: key: 0: no cleavage; +: slow cleavage; ++: medium cleavage; +++: fast cleavage; conditions: solution (ethanol), mercury lamp 150 W, Pyrex, one hour irradiation
Method: Photorelease assays were conducted on solutions (typical concentrations of precursors (I): 0.05% to 0.1% g/v) in organic solvents (preferably ethanol) or on cotton towels after deposition of the phenacyl acetals (I), as described below in the example 3.
The solutions were irradiated with a mercury lamp (150 W) in a borosilicate glass apparatus (Pyrex®) so as to limit the irradiation window to mainly the UVA and UVB spectrum of sun light. The alcoholic solution was irradiated for one hour and samples taken every 15 minutes to analyze the extent of the photolysis.
The presence of the aryl ketone (II) and ester (III) after photolysis in solutions was determined by using GC retention times. Samples (0.2 μl) were injected (on column injection) without further dilution. Gas chromatography-flame ionization detection (GC-FID) was carried out with a Fisons-GC 8000 series apparatus, using a J&W Scientific DB-5 capillary column (30 m, 0.32 mm id, 0.25 μm film, He carrier gas, 85 kPa).
Whereas precursors derived from Oranger Crystals® cleaved fairly slowly (FIG. 1), those derived from acetanisole cleaved fast and Fixolide® precursors even faster. The rates are calculated from the GC analysis (corresponding peak area).

[2] = Stability tests in aqueous buffer solutions; conditions: for Stability at pH 2.5: aqueous buffer pH 2.5, 24 h at 37° C.; for Stability at pH 7: aqueous buffer pH 7, 24 h at 37° C.; for Stability at pH 9.5: aqueous buffer pH 9.5, 24 h at 37° C.
[3] = Stability in washing liquor (washing conditions, OMO Progress base), HPLC; conditions: for Stability at pH 11: pH 11, washing conditions as in example 5; for Amount ecovered / Recovered: washing liquor stirred one hour at room temperature; for Amount ecovered: extraction, HPLC; for Recovered: relative to amount incorporated
Method: (§1) Washing tests were performed according to the following hand washing test cedure with OMO Progress® base which contains the following ingredients:
(§2) 1- The washing powder (2.1 g) containing the phenacyl acetal (I, about 21 mg, 1%) was dissolved in water (500 ml) at room temperature.
The washing liquor (2.1 g washing powder containing 1% phenacyl acetal (I) in 500 ml water), according to 1 in the above described washing procedure, was stirred during one hour at room temperature. Extraction with an organic solvent (preferably t-butyl methyl ether) to recover organic compounds and analysis with HPLC gave the amounts of recovered phenacyl acetal (I), table 4.

[4] = Hand washing tests: partition between water and fabric (substantivity), HPLC; conditions: for Amounts recovered: Water: extract of aqueous washing liquor after hand washing; for Amounts recovered: Water, % (±10%): extract of aqueous washing liquor; for Amounts recovered: Water, % (±10%) / Amounts recovered: Towel extract, % (±10%): of amount incorporated; for Amounts recovered: Towel extract: extract of dried towels after hand washing; for Amounts recovered: Towel extract, % (±10%): extract of dried towels
Method: as §1, §2
2- The towels (35 g) were added to the liquor and mixed with a glass stick.
3- Towels were soaked for 45 minutes with stirring every 15 minutes.
4- The wringed towels were rinsed three times with fresh water (250 ml) with intermediate wringing.
5- Towels were allowed to dry in a dark and odorless place before analysis or evaluation.
The towels were extracted with an organic solvent (preferably t-butyl methyl ether) using a Dionex ASE200 Accelerated Solvent Extractor and the extracts were analyzed by HPLC (Hewlett Packard Series 1100, column: Zorbax Eclipse XDB-C18, dimensions 15 cm×4.6 mm×5 μm).
The washing liquor was extracted with an organic solvent (preferably t-butyl methyl ether, 250 ml) and analyzed by HPLC as above.
The aqueous liquors were extracted with an organic solvent (preferably t-butyl methyl ether) and analytical HPLC gave the results in table 5, which are related to partition between water and fabric.

Compound	UV-test (release of aryl ketone (II) and ester (III), cleavage) [1]	Stability at pH 2.5 [2]	Stability at pH 7 [2]	Stability at pH 9.5 [2]	Stability at pH 11 [3]	Amount ecovered [3]	Recovered [3]	Amounts recovered: Water [4]	Amounts recovered: Water, % (±10%) [4]	Amounts recovered: Towel extract [4]	Amounts recovered: Towel extract, % (±10%) [4]
CCCCCCOC(C)OCC(=O)c1ccc2ccccc2c1 (centres unmarked) [compound 11, 2-(1-Hexyloxy-ethoxy)-1-naphthalen-2-yl-ethanone]	+	–	–	–	–	–	–	–	–	–	–
CC(C)=CCCC(C)CCOC(C)OCC(=O)c1ccc2ccccc2c1 (centres unmarked) [compound 12, 2-[1-(3,7-Dimethyl-oct-6-enyloxy)-ethoxy-]1-naphthalen-2-yl-ethanone]	+	–	–	–	–	–	–	–	–	–	–
CCCCCCOC(C)OCC(=O)c1cc2c(cc1C)C(C)(C)C(C)CC2(C)C (centres unmarked) [compound 8, 1-(3,5,5,6,8,8-Hexamethyl-5,6,7,8-tetrahydro-naphthalen-2-yl)-2-(1-hexyloxy-ethoxy)-ethanone]	+++	stable	stable	stable	stable	22.2 mg	99%	16.3 mg	69%	8.7 mg	42%
COc1ccc(C(=O)COC(C)OCCCc2ccccc2)cc1 (centres unmarked) [compound 6, 1-(4-Methoxy-phenyl)-2-[1-(3-phenyl-propoxy)-ethoxy]-ethanone]	++	unstable	stable	stable	stable	20.8 mg	94%	14.5 mg	65%	17 mg	47%
COc1ccc(C(=O)COC(C)OCCC(C)CCC=C(C)C)cc1 (centres unmarked) [compound 7, 2-[1-(3,7-Dimethyl-oct-6-enyloxy)-ethoxy]-1-(4-methoxy-phenyl)-ethanone]	++	–	–	–	–	–	–	–	–	–	–
CC/C=C\CCOC(C)OCC(=O)c1cc2c(cc1C)C(C)(C)C(C)CC2(C)C (centres unmarked) [compound 9, 1-(3,5,5,6,8,8-Hexamethyl-5,6,7,8-tetrahydro-naphthalen-2-yl)-2-(1-hex-3(Z)-enyloxy-ethoxy)-ethanone]	+++	stable	stable	stable	stable	20.0 mg	96%	15.3 mg	67%	10.3 mg	45%
CCCCCCOC(C)OCC(=O)c1ccc(OC)cc1 (centres unmarked) [compound 5, 2-(1-Hexyloxy-ethoxy)-1-(4-methoxy-phenyl)-ethanone]	++	unstable	stable	stable	stable	25.7 mg	100%	18.4 mg	73%	11.7 mg	46%
COc1ccc(C(=O)COC(C)OCCc2ccccc2)cc1 (centres unmarked) [compound 2, 1-(4-Methoxy-phenyl)-2-(1-phenethyloxy-ethoxy)-ethanone]	++	unstable	stable	stable	stable	18.5 mg	83%	15 mg	63%	10.5 mg	44%
CCOC(C)OCC(=O)c1cc2c(cc1C)C(C)(C)C(C)CC2(C)C (centres unmarked) [compound 10, 2-(1-Ethoxy-ethoxy)-1-(3,5,5,6,8,8-hexamethyl-5,6,7,8-tetrahydro-naphthalen-2-yl)-ethanone]	+++	–	–	–	–	–	–	–	–	–	–
COc1ccc(C(=O)COC(Cc2ccccc2)OC)cc1 (centres unmarked) [compound 15, 1-(4-Methoxy-phenyl)-2-(1-methoxy-2-phenyl-ethoxy)-ethanone]	++	–	–	–	–	–	–	–	–	–	–
CCOC(C)OCC(=O)c1ccc(OC)cc1 (centres unmarked) [compound 1, 2-(1-Ethoxy-ethoxy)-1-(4-methoxy-phenyl)-ethanone]	++	unstable	stable	stable	–	–	–	–	–	–	–
CC/C=C\CCOC(C)OCC(=O)c1ccc(OC)cc1 (centres unmarked) [compound 3, 2-(1-Hex-3(Z)-enyloxy-ethoxy)-1-(4-methoxy-phenyl)-ethanone]	++	unstable	stable	stable	stable	22.3 mg	100%	13.3 mg	59%	14 mg	62%
COc1ccc(C(=O)COC(C)OCCC(C)CC(C)(C)C)cc1 (centres unmarked) [compound 4, 1-(4-Methoxy-phenyl)-2-[1-(3,5,5-trimethyl-hexyloxy)-ethoxyl]-ethanone]	++	unstable	stable	stable	stable	23.5 mg	100%	17.5 mg	75%	8.9 mg	38%
